Like-named read-outs stand apart in the source and are kept apart here.
Tests used:
Format in all cases: cell-based
[1] = system: HIV-1 (IIIB); experiment: Antiviral assay in MT-4 cells; details: Human immunodeficiency virus 1, IIIB, MT4, 120 h, HIV-1 IIIB infected MT-4 cells, 5 days, Cell Titer Glo; read-out: MT4 EC50
Description: Antiviral Assay in MT-4 Cells
(§1) Compounds were tested in a high-throughput 384-well assay format for their ability to inhibit the replication of HIV-1 (IIIB) in MT-4 cells. Compounds were serially diluted (1:3) in DMSO on 384-well polypropylene plates and further diluted 200-fold into complete RPMI media (10% FBS, 1% P/S) using the Biotek Micro Flow and Labcyte ECHO acoustic dispenser. Each plate contained up to 8 test compounds, with negative (No Drug Control) and 5 μM AZT positive controls. MT-4 cells were pre-infected with 10 μL of either RPMI (mock-infected) or a fresh 1:250 dilution of HIV-1 IIIB concentrated virus stock. Infected and uninfected MT-4 cells were further diluted in complete RPMI media and added to each plate using a Micro Flow dispenser. After 5 days incubation in a humidified and temperature controlled incubator (37° C.), Cell Titer Glo (Promega) was added to the assay plates and chemiluminescence read using an Envision plate-reader. EC50 values were defined as the compound concentration that causes a 50% decrease in luminescence signal, and were calculated using a sigmoidal dose-response model to generate curve fits.

[2] = Cytotoxicity assay in MT-4 cells; details: human
Description: as §1, with “fits. Cytotoxicity Assay in MT-4 Cells Assays were performed as above except uninfected MT-4 cells were added to each well containing test compound. In addition, 10 μM puromycin was added to the last column of each assay plate to assess a base level of cytotoxicity.” for “fits.”

[3] = system: pLai RLuc reporter virus; experiment: HIV MT-4 serum shift antiviral reporter assay; details: Human immunodeficiency virus 1, 72 h
Description: To quantify the amount of protein binding to human serum, compounds were serially diluted (1:3) in DMSO and acoustically transferred onto 384-well assay plates via a Labcyte ECHO robot. Each plate contained up to 8 test compounds, including negative and positive controls, (DMSO, 5 μM AZT respectively). Assay plates were prepared in duplicate, and tested in either CCM (cell culture media) or HS/CCM (human serum/cell culture media). MT-4 cells were first pre-infected with pLai RLuc reporter virus for 2 h at 37° C., then further diluted in either CCM (RPMI media, 10% FBS, 1% P/S) or HS/CCM (RPMI media, 10% FBS, 50% HS, 1% P/S), and subsequently added to each plate using a Biotek Micro Flow dispenser. After a 72-h incubation in a humidified and temperature controlled incubator (37° C.), Renilla Glo (Promega) was added to all assay plates and chemiluminescence read using an Envision plate-reader. EC50 values were defined as the compound concentration that causes a 50% decrease in luminescence signal, and were calculated using a sigmoidal dose-response model to generate curve fits. To determine the amount of protein binding, EC50 fold shifts (or EC50 shifts) were calculated by dividing EC50 (HS/CCM)/EC50 (CCM).

[4] = uninfected MT-4 cells, 5 days, Cell Titer Glo, read-out: CC50
[5] = read-out: RLUC 50% HS (nM), HS/CCM: 50% human serum, 72 h, Renilla Glo
[6] = read-out: RLUC CCM (nM), cell culture media (RPMI, 10% FBS), 72 h, Renilla Glo

SMILES	EC50 [1] [nM]	CC50 at 5 days [2, 4] [nM]	EC50 [3, 5] [nM]	EC50 [3, 6] [nM]	CC50 at 5 days ([2]; CC50 (nM)) [nM]
C[C@H]1C=CCN2CN1C(=O)c1c(O)c(=O)c(C(=O)NCc3c(F)cc(F)cc3F)cn12 [Example C5, (10S)-6-hydroxy-10-methyl-5,8-dioxo-N-[(2,4,6-trifluorophenyl)methyl]-1,2,9-triazatricyclo[7.4.1.02,7]tetradeca-3,6,11-triene-4-carboxamide]	3.4	14200	40.4	0.42	–
O=C(NCc1c(F)cc(F)cc1F)c1cn2c(c(O)c1=O)C(=O)N1CCCCN2C1Cc1ccccc1 (stereo not drawn) [Example C6, 13-benzyl-8-hydroxy-7,9-dioxo-N-(2,4,6-trifluorobenzyl)-2,3,4,5,7,9-hexahydro-1,6-methanopyrido[1,2-b][1,2,5]triazonine-10-carboxamide]	7.5	9880	23.1	3.5	–
C[C@H]1C=CC2(COC(C)(C)C2)N2CN1C(=O)c1c(O)c(=O)c(C(=O)NCc3c(F)cc(F)cc3F)cn12 (stereo partly drawn) [Example C9, (1′S,5′S)-8′-hydroxy-5,5,5′-trimethyl-7′,9′-dioxo-N-(2,4,6-trifluorobenzyl)-4,5,7′,9′-tetrahydro-2H,5′H-spiro[furan-3,2′-[1,6]methanopyrido[1,2-b][1,2,5]triazonine]-10′-carboxamide]	–	–	–	–	25300
C[C@@H]1C/C=C\[C@H](C)N2CN1n1cc(C(=O)NCc3c(F)cc(F)cc3F)c(=O)c(O)c1C2=O [Example C12, (1R,2S,6R,Z)-9-hydroxy-2,6-dimethyl-8,10-dioxo-N-(2,4,6-trifluorobenzyl)-3,6,8,10-tetrahydro-2H-1,7-methanopyrido[1,2-b][1,2,5]triazecine-11-carboxamide]	3.4	10800	273	0.77	–
C[C@@H]1CCCCN2CN1n1cc(C(=O)NCc3ccc(F)cc3F)c(=O)c(O)c1C2=O [Example C13, (1S,2R)—N-(2,4-difluorobenzyl)-9-hydroxy-2-methyl-8,10-dioxo-3,4,5,6,8,10-hexahydro-2H-1,7-methanopyrido[1,2-b][1,2,5]triazecine-11-carboxamide]	1.3	8870	4.07	0.25	–
C[C@@H]1C/C=C\CN2CN1n1cc(C(=O)NCc3c(F)cc(F)cc3F)c(=O)c(O)c1C2=O [Example C16, (1S,2R,Z)-9-hydroxy-2-methyl-8,10-dioxo-N-(2,4,6-trifluorobenzyl)-3,6,8,10-tetrahydro-2H-1,7-methanopyrido[1,2-b][1,2,5]triazecine-11-carboxamide]	1.1	11400	19.4	0.32	–
C[C@@H]1CCCCN2CN1n1cc(C(=O)NCc3c(F)cc(F)cc3F)c(=O)c(O)c1C2=O [Example C17, (1S,2R)-9-hydroxy-2-methyl-8,10-dioxo-N-(2,4,6-trifluorobenzyl)-3,4,5,6,8,10-hexahydro-2H-1,7-methanopyrido[1,2-b][1,2,5]triazecine-11-carboxamide]	0.91	11200	7.12	0.16	–
C[C@@H]1CCC[C@@H](C)N2CN1C(=O)c1c(O)c(=O)c(C(=O)NCc3c(F)cc(F)cc3F)cn12 [Example C22, (1S,2R,6R)-9-hydroxy-2,6-dimethyl-8,10-dioxo-N-(2,4,6-trifluorobenzyl)-3,4,5,6,8,10-hexahydro-2H-1,7-methanopyrido[1,2-b][1,2,5]triazecine-11-carboxamide]	2.2	16300	–	–	–
CO[C@@H]1[C@H](OC)[C@@H](C)N2CN(C(=O)c3c(O)c(=O)c(C(=O)NCc4c(F)cc(F)cc4F)cn32)[C@H]1C [Example C32, (1S,2R,3R,4S,5S)-8-hydroxy-3,4-dimethoxy-2,5-dimethyl-7,9-dioxo-N-(2,4,6-trifluorobenzyl)-2,3,4,5,7,9-hexahydro-1,6-methanopyrido[1,2-b][1,2,5]triazonine-10-carboxamide]	2.4	28000	1.04	0.55	–
CO[C@@H]1C[C@@H](C)N2CN(C(=O)c3c(O)c(=O)c(C(=O)NCc4c(F)cc(F)cc4F)cn32)[C@H]1C [Example C33, (1S,2R,4R,5S)-8-hydroxy-4-methoxy-2,5-dimethyl-7,9-dioxo-N-(2,4,6-trifluorobenzyl)-2,3,4,5,7,9-hexahydro-1,6-methanopyrido[1,2-b][1,2,5]triazonine-10-carboxamide]	4	32900	4.3	1.8	–
C[C@@H]1C[C@H](F)[C@H](C)N2CN1n1cc(C(=O)NCc3c(F)cc(F)cc3F)c(=O)c(O)c1C2=O [Example C34, (1S,2R,4S,5S)-4-fluoro-8-hydroxy-2,5-dimethyl-7,9-dioxo-N-(2,4,6-trifluorobenzyl)-2,3,4,5,7,9-hexahydro-1,6-methanopyrido[1,2-b][1,2,5]triazonine-10-carboxamide]	1.4	8360	938	0.59	–
CO[C@H]1C[C@@H](C)N2CN(C[C@H]1OC)C(=O)c1c(O)c(=O)c(C(=O)NCc3ccc(F)cc3F)cn12 [Example C39, (1S,2R,4S,5R)—N-(2,4-difluorobenzyl)-9-hydroxy-4,5-dimethoxy-2-methyl-8,10-dioxo-3,4,5,6,8,10-hexahydro-2H-1,7-methanopyrido[1,2-b][1,2,5]triazecine-11-carboxamide]	3.5	20300	4.7	0.93	–
C[C@H]1CC[C@@H](CF)N2CN1C(=O)c1c(O)c(=O)c(C(=O)NCc3ccc(F)cc3F)cn12 [Example C45, (1S,2S,5S)—N-(2,4-difluorobenzyl)-2-(fluoromethyl)-8-hydroxy-5-methyl-7,9-dioxo-2,3,4,5,7,9-hexahydro-1,6-methanopyrido[1,2-b][1,2,5]triazonine-10-carboxamide]	1.8	11000	–	–	–
C[C@H]1CCC(C)(C)N2CN1C(=O)c1c(O)c(=O)c(C(=O)NCc3c(F)cc(F)cc3F)cn12 [Example C87, (1S,5S)-8-hydroxy-2,2,5-trimethyl-7,9-dioxo-N-(2,4,6-trifluorobenzyl)-2,3,4,5,7,9-hexahydro-1,6-methanopyrido[1,2-b][1,2,5]triazonine-10-carboxamide]	–	–	198	0.68	–
CC1N2C(=O)c3c(O)c(=O)c(C(=O)NCc4c(F)cc(F)cc4F)cn3N1[C@H](C)C=C[C@@H]2C (stereo partly drawn) [Example C100, (1S,2R,5S)-8-hydroxy-2,5,13-trimethyl-7,9-dioxo-N-(2,4,6-trifluorobenzyl)-2,5,7,9-tetrahydro-1,6-methanopyrido[1,2-b][1,2,5]triazonine-10-carboxamide]	0.8	16200	–	–	–
CCC1N2C(=O)c3c(O)c(=O)c(C(=O)NCc4c(F)cc(F)cc4F)cn3N1[C@H](C)C=C[C@@H]2C (stereo partly drawn) [Example C101, (1S,2R,5S)-13-ethyl-8-hydroxy-2,5-dimethyl-7,9-dioxo-N-(2,4,6-trifluorobenzyl)-2,5,7,9-tetrahydro-1,6-methanopyrido[1,2-b][1,2,5]triazonine-10-carboxamide]	19.7	33500	–	–	–
